Results published in ChEMBL document CHEMBL1201862, “PubChem BioAssay data set” (2004).
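Protocol summary: plate cells (96-well), add compound at 5 concentrations, incubate 48 h, interpolate endpoints linearly. GI50 is the concentration that inhibits growth by half.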 Calls of active or inactive are those of the source. Cut-off read from the data, not from the text of the source: active = GI50 up to about 1.1 µM and inactive = higher.

Tests used:
Experiment in all cases: DTP human tumour cell line panel, 48 h
A549 = test system: A549
CCRF-CEM = test system: CCRF-CEM
HCC 2998 = test system: HCC 2998
HOP-62 = test system: HOP-62
HOP-92 = test system: HOP-92
HT-29 = test system: HT-29
K562 = test system: K562
LOX IMVI = test system: LOX IMVI
M14 = test system: M14
Malme-3M = test system: Malme-3M
NCI-H460 = test system: NCI-H460
NCI-H522 = test system: NCI-H522
OVCAR-3 = test system: OVCAR-3
OVCAR-4 = test system: OVCAR-4
RXF 393 = test system: RXF 393
SF-268 = test system: SF-268
SF-539 = test system: SF-539
SW-620 = test system: SW-620
UO-31 = test system: UO-31
NCI/ADR-RES = test system: NCI/ADR-RES

| SMILES | GI50 (A549) | GI50 (CCRF-CEM) | GI50 (HCC 2998) | GI50 (HOP-62) | GI50 (HOP-92) | GI50 (HT-29) | GI50 (K562) | GI50 (LOX IMVI) | GI50 (M14) | GI50 (Malme-3M) | GI50 (NCI-H460) | GI50 (NCI-H522) | GI50 (OVCAR-3) | GI50 (OVCAR-4) | GI50 (RXF 393) | GI50 (SF-268) | GI50 (SF-539) | GI50 (SW-620) | GI50 (UO-31) | GI50 (NCI/ADR-RES) |
| --- | --- | --- | --- | --- | --- | --- | --- | --- | --- | --- | --- | --- | --- | --- | --- | --- | --- | --- | --- | --- |
| Cc1cc(Cl)ccc1NC(=O)C1C(=O)N(c2ccc(Cl)cc2C)C(=O)/C1=N\N (configuration not stated) | 34.4 µM (inactive) | 28.6 µM (inactive) | 24.9 µM (inactive) | 40.7 µM (inactive) | 34.7 µM (inactive) | 53.6 µM (inactive) | 45.1 µM (inactive) | 51.2 µM (inactive) | 61.2 µM (inactive) | 71.8 µM (inactive) | 51.6 µM (inactive) | 53.5 µM (inactive) | 30.8 µM (inactive) | 83.2 µM (inactive) | > 100 µM (inactive) | 26.5 µM (inactive) | 44.6 µM (inactive) | 42.4 µM (inactive) | 33 µM (inactive) |  |
| COc1cc2c(cc1O)C1C(O)C(O)C=C3CCN(C2)C31 (configuration not stated) | 2.11 µM (inactive) | 3.65 µM (inactive) | 2.4 µM (inactive) | 2.92 µM (inactive) | 1.16 µM (inactive) | 3.17 µM (inactive) | 2.51 µM (inactive) | 0.76 µM (active) | 1.79 µM (inactive) | 0.587 µM (active) | 1.83 µM (inactive) | 1.8 µM (inactive) | 2.67 µM (inactive) | 1.38 µM (inactive) | 1.45 µM (inactive) | 2.2 µM (inactive) | 2.09 µM (inactive) | 2.49 µM (inactive) | 2.77 µM (inactive) |  |
| CCCCC(/C=C\COC1CCCCO1)=C/C(=O)OCC (configuration not stated) | 56.6 µM (inactive) | 33.8 µM (inactive) | > 100 µM (inactive) | > 100 µM (inactive) |  | 38.4 µM (inactive) | 45.2 µM (inactive) | 41.4 µM (inactive) | 91.6 µM (inactive) | > 100 µM (inactive) | 98.6 µM (inactive) | 30.5 µM (inactive) | 52.7 µM (inactive) | 61.2 µM (inactive) | 60.7 µM (inactive) | > 100 µM (inactive) | 14.3 µM (inactive) | 70.6 µM (inactive) | > 100 µM (inactive) | > 100 µM (inactive) |
| Cc1cc(C)nc(NS(=O)(=O)c2ccc(NC(=O)NC(F)(F)F)cc2)n1 | > 100 µM (inactive) | > 100 µM (inactive) | > 100 µM (inactive) |  |  | > 100 µM (inactive) | > 100 µM (inactive) | > 100 µM (inactive) | > 100 µM (inactive) |  |  |  |  |  | > 100 µM (inactive) | > 100 µM (inactive) | > 100 µM (inactive) | > 100 µM (inactive) | > 100 µM (inactive) | > 100 µM (inactive) |
| C=C1C(=O)OC2/C=C(\C)C(OC(C)=O)C3OC3C(C)(O)CC(OC(=O)/C(C)=C/C)C12 (configuration not stated) | 18.7 µM (inactive) | 2.81 µM (inactive) | 8.38 µM (inactive) | 19.1 µM (inactive) | 5.52 µM (inactive) | 14.9 µM (inactive) | 4.35 µM (inactive) | 15.3 µM (inactive) | 4.65 µM (inactive) | 8.69 µM (inactive) | 15.7 µM (inactive) | 1.62 µM (inactive) | 3.9 µM (inactive) | 33.8 µM (inactive) | 3.85 µM (inactive) | 10.9 µM (inactive) | 3.67 µM (inactive) | < 0.01 µM (active) | 11 µM (inactive) |  |
| CC1=C(C(=O)Nc2ccccc2)C(c2ccc(C(C)C)cc2)C(C(=O)Nc2ccccc2)=C(C)N1 | 16.5 µM (inactive) | 13.3 µM (inactive) | 7.19 µM (inactive) | 25.3 µM (inactive) | 14.2 µM (inactive) | 15.2 µM (inactive) | 12.1 µM (inactive) | 15 µM (inactive) | 18.2 µM (inactive) | 15.5 µM (inactive) | 18.9 µM (inactive) | 15.1 µM (inactive) | 18.2 µM (inactive) | 28.5 µM (inactive) | 11.8 µM (inactive) | 22.3 µM (inactive) | 12.8 µM (inactive) | 17.2 µM (inactive) | 12.5 µM (inactive) |  |
| C[C@]12CC[C@H](O)CC1CCC[C@@H]2O (some centres not stated) | > 100 µM (inactive) | > 100 µM (inactive) | > 100 µM (inactive) | > 100 µM (inactive) | > 100 µM (inactive) | > 100 µM (inactive) | > 100 µM (inactive) | > 100 µM (inactive) | > 100 µM (inactive) | > 100 µM (inactive) | > 100 µM (inactive) | > 100 µM (inactive) | > 100 µM (inactive) | > 100 µM (inactive) | > 100 µM (inactive) | > 100 µM (inactive) | > 100 µM (inactive) | > 100 µM (inactive) | > 100 µM (inactive) |  |
